Results from patent EP0219838A2, “Carbocyclic purine nucleosides, their production and use” (Takeda Chemical Industries, Ltd., priority 1985, dated 1987).
Values after ≈ are worked out from the molar mass of the structure shown. Like-named read-outs stand apart in the source and are kept apart here.

Tests used:
Type in all cases: cell-based
[1] = tested on: Adenovirus, Type 3; test: Antiadenovirus activity (reduction of viral cytopathogenic effect) in FL cells; details: Human mastadenovirus B, 192 h; 50% inhibitory dose; FL cells infected with 100 TCID50; observed eight days after the infection; read-out: ID50 (the source's name)
From the text: FL cells were infected with 100 TCID₅₀ (50% tissueculture infected doses) of viruses and cultured with various concentrations of the compouns.

[2] = tested on: Herpes Simplex Virus Type 1, HF Strain; test: Inhibitory effect against herpes simplex virus (reduction of viral cytopathogenic effect) in Vero cells
From the text: (§1) Vero cells were infected with 100 TCID₅₀ (50% tissue-culture infected doses) of viruses and cultured with various concentrations of the compounds.

[3] = Cytotoxicity in non-infected control culture (FL cells); details: human, non-infected FL cell control culture, eight days
[4] = Cytotoxicity in non-infected control culture (Vero cells); details: monkey
From the text: as §1

[5] = Human alphaherpesvirus 1, 72 h, concentration required to reduce the viral cytopathogenic effect by 50%, Vero cells infected with 100 TCID50, observed three days after the infection, read-out: ID50 (the source's name)
[6] = Human alphaherpesvirus 1, Vero, 72 h, read-out: ID50

Row | IC50 [1] [µg/mL] | IC50 [2, 5] [µg/mL] | SMILES | MCC at 192 h [3] [µg/mL] | MCC at 72 h ([4]; vero cells) [µg/mL] | IC50 [2, 6] [µg/mL] | MCC at 72 h ([4]; minimum concentration to cause a visible disruption of normal cell morphology, non-infected Vero cells, three days, read-out: Cytotoxicity) [µg/mL]
1 | 0.39 (≈ 1.47 µM) | 0.049 (≈ 0.185 µM) | Nc1nc2c(ncn2[C@@H]2C[C@H](CO)[C@H](O)C2)c(=O)[nH]1 [9-[(1R, 3R, 4R)-4-hydroxymethyl-3-hydroxycyclopentan-1-yl]guanine] | 3.13 | 12.5 | – | –
2 | 200 (≈ 888 µM) | 3.13 (≈ 13.9 µM) | Nc1nc2c(ncn2COCCO)c(=O)[nH]1 [Acyclovir] | 400 | 800 | – | –
3 | – | 50 (≈ 141 µM) | O=c1[nH]c(=O)n([C@H]2C[C@H](O)[C@@H](CO)O2)cc1I [IUDR] | – | 200 | – | –

The remaining lines, values behind:

Row | SMILES | IC50 [1] [µg/mL] | IC50 [2, 5] [µg/mL] | MCC at 192 h [3] [µg/mL] | MCC at 72 h ([4]; vero cells) [µg/mL] | IC50 [2, 6] [µg/mL] | MCC at 72 h ([4]; minimum concentration to cause a visible disruption of normal cell morphology, non-infected Vero cells, three days, read-out: Cytotoxicity) [µg/mL]
4 | Nc1ncnc2c1ncn2[C@@H]1O[C@H](CO)[C@@H](O)[C@@H]1O [Ara-A] | – | – | – | 100 | 12.5 (≈ 46.8 µM) | –
5 | Nc1ccn([C@@H]2O[C@H](CO)[C@@H](O)[C@@H]2O)c(=O)n1 [Ara-C] | – | – | – | – | 0.39 (≈ 1.6 µM) | 0.78
6 | O=c1[nH]c(=O)n([C@H]2C[C@H](O)[C@@H](CO)O2)cc1Br [BUDR] | – | 25 (≈ 81.4 µM) | – | 100 | – | –
